Results taken from US20010046509A1, “Use of cinnamic acid or of its derivatives in a cosmetic firming composition” (priority 1997, published 2001).

Tested on: normal human dermal fibroblast cultures
Assay: Effect on collagen synthesis: incorporation of radioactive proline into fibroblast cultures
Format: cell-based
Conditions: for tritiated proline incorporated, cpm (counts per minute): untreated cells 19261 cpm; for tritiated proline incorporation, % relative to untreated cells: untreated cells = 100
Procedure: The study is carried out by measuring the incorporation of radioactive proline into normal human dermal fibroblast cultures. The fibroblast cultures are prepared according to the standard methods of cell culturing, i.e. in MEM/M199 medium sold by the company Gibco, in the presence of sodium bicarbonate (1.87 mg/ml), L-glutamine (2 mM), penicillin (50 IU/ml) and 10% foetal calf serum (Gibco). The test is carried out on cell cultures at 80% confluence on 24-well plates. Cinnamic acid, at a concentration of 10^−4M is placed in contact with the cells for 48 hours. Labelling with tritiated proline (L-[2,3-^3H]-proline sold by Amersham, 33 μCi/ml) is carried out for 24 hours. The level of tritiated proline incorporated is measured at the end of the test by acidic precipitation of the proteins on filters and counting by liquid scintillation. The results are assessed relative to a control consisting of cells which have not been treated with cinnamic acid. A positive control (20 μg/ml of vitamin C), which is known to stimulate collagen synthesis, and a negative control (10^−6M retinoic acid), which is known to inhibit collagen synthesis, are introduced into the test by way of reference.

[1] = cinnamic acid 10^-4 M, 48 hours contact, 24 hours labelling
[2] = negative control, 10^-6 M retinoic acid
[3] = positive control, 20 μg/ml of vitamin C

O=C(O)C=Cc1ccccc1 [Cinnamic acid] was tested, and the “incorporation of proline into collagen (collagen neosynthesis), result in words” value (cinnamic acid 10^-4 M, 48 hours) was “significantly stimulates the incorporation of proline into collagen”, the “tritiated proline incorporated, cpm (counts per minute)” value [1] was 26209 cpm and the “tritiated proline incorporation, % relative to untreated cells” value [1] was 136%.
CC1=C(/C=C/C(C)=C/C=C/C(C)=C/C(=O)O)C(C)(C)CCC1 [Retinoic acid, retinoic acid] was tested, and the “tritiated proline incorporated, cpm (counts per minute)” value [2] was 13160 cpm and the “tritiated proline incorporation, % relative to untreated cells” value [2] was 68%.
With O=C1O[C@H]([C@@H](O)CO)C(O)=C1O [Vitamin C, vitamin C] the “tritiated proline incorporated, cpm (counts per minute)” value [3] was 40344 cpm and the “tritiated proline incorporation, % relative to untreated cells” value [3] was 209%.
